In experiment [1] the target is Interferon-induced, double-stranded RNA-activated protein kinase (Homo sapiens) (UniProt P19525). The experiment is described as follows: Residual activity of EIF2AK2 at 0.1 uM by microplate scintillation counting.
The target of experiment [2] is T1, Serine/threonine-protein kinase Nek11 (Homo sapiens) (UniProt Q8NG66).
T1 sequence (whole entry): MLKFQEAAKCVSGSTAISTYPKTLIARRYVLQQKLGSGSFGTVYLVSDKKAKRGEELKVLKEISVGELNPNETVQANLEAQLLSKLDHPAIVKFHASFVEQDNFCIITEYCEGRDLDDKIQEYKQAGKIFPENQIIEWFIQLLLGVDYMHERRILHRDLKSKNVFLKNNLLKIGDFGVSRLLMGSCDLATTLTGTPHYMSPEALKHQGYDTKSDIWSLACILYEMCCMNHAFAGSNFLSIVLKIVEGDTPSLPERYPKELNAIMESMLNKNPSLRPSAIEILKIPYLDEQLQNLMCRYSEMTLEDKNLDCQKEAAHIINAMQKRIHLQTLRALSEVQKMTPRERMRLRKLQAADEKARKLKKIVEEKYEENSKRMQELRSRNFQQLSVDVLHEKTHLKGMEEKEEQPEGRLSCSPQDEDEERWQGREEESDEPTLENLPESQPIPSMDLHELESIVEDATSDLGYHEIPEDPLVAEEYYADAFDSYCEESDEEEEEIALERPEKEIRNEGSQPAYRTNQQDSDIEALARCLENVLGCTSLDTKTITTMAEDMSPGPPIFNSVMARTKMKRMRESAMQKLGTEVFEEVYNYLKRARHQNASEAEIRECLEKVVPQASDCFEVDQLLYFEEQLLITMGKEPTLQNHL
In words: Residual activity of NEK11 at 0.1 uM by microplate scintillation counting.

Experiment [3] deals with Tyrosine-protein kinase HCK (Homo sapiens) (UniProt P08631). The experiment is described as follows: Residual activity of HCK at 0.1 uM by microplate scintillation counting.
The target in experiment [4] is Protein-tyrosine kinase 6 (Homo sapiens) (UniProt Q13882). The experiment is described as follows: Residual activity of BRK at 10 uM by microplate scintillation counting.
Protein-tyrosine kinase 6 (Homo sapiens), sequence (Q13882 whole entry, looked up): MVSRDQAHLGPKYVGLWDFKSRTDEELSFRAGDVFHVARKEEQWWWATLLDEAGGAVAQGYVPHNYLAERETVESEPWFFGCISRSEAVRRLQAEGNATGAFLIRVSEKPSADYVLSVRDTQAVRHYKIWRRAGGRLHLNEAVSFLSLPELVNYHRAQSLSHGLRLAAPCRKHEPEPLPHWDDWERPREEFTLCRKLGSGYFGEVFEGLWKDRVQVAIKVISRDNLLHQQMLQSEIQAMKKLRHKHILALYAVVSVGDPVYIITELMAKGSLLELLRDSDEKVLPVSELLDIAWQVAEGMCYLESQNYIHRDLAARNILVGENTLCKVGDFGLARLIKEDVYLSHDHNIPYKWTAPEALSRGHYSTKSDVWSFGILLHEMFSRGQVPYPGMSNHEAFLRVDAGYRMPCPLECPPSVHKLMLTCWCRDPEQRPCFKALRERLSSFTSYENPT
The target in experiment [5] is Serine/threonine-protein kinase WNK3 (Homo sapiens) (UniProt Q9BYP7). The experiment is described as follows: Residual activity of WNK3 at 1 uM by microplate scintillation counting.
Serine/threonine-protein kinase WNK3 (Homo sapiens), sequence (Q9BYP7 whole entry): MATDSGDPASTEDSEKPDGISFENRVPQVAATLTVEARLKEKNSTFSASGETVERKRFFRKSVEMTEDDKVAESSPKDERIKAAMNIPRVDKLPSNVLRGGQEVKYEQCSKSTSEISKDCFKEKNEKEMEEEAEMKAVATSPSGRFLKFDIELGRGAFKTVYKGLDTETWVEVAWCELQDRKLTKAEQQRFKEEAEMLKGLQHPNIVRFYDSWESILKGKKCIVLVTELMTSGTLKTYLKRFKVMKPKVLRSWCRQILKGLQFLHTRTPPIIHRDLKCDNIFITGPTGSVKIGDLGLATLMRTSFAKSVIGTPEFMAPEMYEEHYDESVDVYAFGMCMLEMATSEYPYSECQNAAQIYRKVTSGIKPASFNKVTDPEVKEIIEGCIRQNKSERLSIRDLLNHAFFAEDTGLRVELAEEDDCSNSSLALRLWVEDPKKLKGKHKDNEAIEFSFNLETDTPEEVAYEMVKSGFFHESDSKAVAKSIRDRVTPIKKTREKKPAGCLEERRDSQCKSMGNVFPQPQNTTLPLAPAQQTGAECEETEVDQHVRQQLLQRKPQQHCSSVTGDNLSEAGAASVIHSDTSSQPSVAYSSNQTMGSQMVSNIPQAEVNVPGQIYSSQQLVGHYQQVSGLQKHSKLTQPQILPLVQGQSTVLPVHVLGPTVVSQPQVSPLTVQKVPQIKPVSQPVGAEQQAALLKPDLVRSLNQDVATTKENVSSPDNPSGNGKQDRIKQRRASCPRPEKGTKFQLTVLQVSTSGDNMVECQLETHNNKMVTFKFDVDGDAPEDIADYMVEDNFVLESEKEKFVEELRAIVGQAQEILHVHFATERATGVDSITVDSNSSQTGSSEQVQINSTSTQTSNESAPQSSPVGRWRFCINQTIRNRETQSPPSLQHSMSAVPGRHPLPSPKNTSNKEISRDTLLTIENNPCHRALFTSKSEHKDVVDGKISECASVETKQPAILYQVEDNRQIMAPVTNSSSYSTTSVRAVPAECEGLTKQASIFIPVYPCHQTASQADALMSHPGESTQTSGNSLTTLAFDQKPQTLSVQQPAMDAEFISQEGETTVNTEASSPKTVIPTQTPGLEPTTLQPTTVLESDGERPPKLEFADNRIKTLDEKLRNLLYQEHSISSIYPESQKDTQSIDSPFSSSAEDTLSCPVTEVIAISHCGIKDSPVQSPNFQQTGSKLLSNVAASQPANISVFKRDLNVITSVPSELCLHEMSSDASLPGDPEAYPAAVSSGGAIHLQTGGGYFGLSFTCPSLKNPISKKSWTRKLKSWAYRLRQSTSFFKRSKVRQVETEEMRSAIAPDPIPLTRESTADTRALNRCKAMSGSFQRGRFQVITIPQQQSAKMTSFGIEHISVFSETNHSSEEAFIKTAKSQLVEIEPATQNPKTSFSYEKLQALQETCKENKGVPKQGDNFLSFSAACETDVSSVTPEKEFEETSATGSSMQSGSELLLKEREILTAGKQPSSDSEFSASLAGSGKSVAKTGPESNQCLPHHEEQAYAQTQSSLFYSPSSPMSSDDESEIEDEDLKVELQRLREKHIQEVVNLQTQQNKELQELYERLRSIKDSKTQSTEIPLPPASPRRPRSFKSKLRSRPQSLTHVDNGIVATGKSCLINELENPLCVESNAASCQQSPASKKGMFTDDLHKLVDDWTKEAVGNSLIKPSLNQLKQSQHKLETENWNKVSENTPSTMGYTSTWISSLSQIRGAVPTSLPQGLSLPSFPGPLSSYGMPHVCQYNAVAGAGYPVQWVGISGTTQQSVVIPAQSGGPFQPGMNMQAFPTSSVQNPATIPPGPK
Experiment [6] has as its target CDK1/Cyclin E (Homo sapiens) (UniProt P06493+P24864). The experiment is described as follows: Residual activity of CDK1/Cyclin E at 0.1 uM by microplate scintillation counting. Format: protein-complex assay.
Experiment [7] addresses Tyrosine-protein kinase Fyn (Homo sapiens) (UniProt P06241). In words: Residual activity of FYN at 10 uM by microplate scintillation counting.
Experiment [8] relates to Epidermal growth factor receptor (Homo sapiens), P00533 [T790M]. In words: Residual activity of EGFR T790M mutant at 1 uM by microplate scintillation counting.
The target in experiment [9] is T2, Ephrin type-B receptor 2 (Homo sapiens) (UniProt P29323).
T2 sequence (whole entry): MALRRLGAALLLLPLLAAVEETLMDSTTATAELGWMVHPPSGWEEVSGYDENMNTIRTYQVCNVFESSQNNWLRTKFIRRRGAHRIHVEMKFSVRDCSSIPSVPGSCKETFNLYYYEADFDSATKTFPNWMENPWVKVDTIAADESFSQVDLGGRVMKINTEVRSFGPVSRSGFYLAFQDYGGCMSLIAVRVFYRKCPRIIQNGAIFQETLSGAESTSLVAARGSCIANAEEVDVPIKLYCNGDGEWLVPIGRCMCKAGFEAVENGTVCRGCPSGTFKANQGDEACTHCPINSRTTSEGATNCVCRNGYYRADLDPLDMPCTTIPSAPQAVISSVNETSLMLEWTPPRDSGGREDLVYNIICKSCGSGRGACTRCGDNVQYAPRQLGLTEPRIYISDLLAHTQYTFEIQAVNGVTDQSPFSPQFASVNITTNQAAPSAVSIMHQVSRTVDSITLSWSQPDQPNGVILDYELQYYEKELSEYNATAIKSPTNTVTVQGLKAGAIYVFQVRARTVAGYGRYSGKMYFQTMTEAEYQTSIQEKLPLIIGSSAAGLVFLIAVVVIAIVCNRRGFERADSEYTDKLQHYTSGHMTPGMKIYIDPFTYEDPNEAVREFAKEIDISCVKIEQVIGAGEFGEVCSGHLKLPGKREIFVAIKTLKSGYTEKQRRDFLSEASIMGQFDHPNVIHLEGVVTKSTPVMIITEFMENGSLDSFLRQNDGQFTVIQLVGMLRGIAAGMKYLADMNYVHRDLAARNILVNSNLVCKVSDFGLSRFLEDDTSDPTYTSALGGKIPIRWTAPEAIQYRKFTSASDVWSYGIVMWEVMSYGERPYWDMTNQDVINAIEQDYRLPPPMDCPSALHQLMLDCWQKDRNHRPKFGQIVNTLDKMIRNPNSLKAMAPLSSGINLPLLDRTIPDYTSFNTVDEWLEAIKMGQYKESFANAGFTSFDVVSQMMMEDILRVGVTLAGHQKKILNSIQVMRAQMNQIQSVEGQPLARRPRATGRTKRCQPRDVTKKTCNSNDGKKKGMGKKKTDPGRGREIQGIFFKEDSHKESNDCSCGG
In words: Residual activity of EPHB2 at 0.1 uM by microplate scintillation counting.

In experiment [10] the target is Serine/threonine-protein kinase MRCK beta (Homo sapiens) (UniProt Q9Y5S2). The experiment is described as follows: Residual activity of CDC42BPB at 10 uM by microplate scintillation counting.
Experiment [11] has as its target Serine/threonine-protein kinase Nek7 (Homo sapiens) (UniProt Q8TDX7). In words: Residual activity of NEK7 at 0.1 uM by microplate scintillation counting.
The target of experiment [12] is Cyclin-dependent kinase 1/cyclin B1 (Homo sapiens) (UniProt P06493+P14635). The experiment is described as follows: Residual activity of CDK1/CyclinB1 at 0.1 uM by microplate scintillation counting. Format: protein-complex assay.
Cyclin-dependent kinase 1/cyclin B1 (Homo sapiens), sequence (P06493 whole entry, looked up): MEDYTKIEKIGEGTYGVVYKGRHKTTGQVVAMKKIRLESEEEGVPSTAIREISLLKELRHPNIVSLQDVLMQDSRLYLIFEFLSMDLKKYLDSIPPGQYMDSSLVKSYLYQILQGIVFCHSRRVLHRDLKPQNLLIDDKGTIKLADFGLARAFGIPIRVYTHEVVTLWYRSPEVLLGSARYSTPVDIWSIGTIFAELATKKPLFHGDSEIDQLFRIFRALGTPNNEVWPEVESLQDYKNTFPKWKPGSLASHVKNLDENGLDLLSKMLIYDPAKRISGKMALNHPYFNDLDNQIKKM
Cyclin-dependent kinase 1/cyclin B1 (Homo sapiens), sequence (P14635 whole entry, looked up): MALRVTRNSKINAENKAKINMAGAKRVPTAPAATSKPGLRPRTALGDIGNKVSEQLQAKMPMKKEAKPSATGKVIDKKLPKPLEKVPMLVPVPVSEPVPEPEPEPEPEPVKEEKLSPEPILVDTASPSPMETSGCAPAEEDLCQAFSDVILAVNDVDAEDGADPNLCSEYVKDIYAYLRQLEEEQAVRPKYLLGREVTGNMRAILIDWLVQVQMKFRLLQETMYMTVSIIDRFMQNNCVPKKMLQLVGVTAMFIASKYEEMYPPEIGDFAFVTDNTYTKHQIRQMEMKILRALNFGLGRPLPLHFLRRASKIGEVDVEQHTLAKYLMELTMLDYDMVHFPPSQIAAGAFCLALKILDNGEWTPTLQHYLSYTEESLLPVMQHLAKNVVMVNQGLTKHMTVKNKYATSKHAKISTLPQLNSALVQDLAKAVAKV
Experiment [13] has as its target ALK tyrosine kinase receptor (Homo sapiens) (UniProt Q9UM73). The experiment is described as follows: Residual activity of ALK at 1 uM by microplate scintillation counting.
The target in the next experiment is Angiopoietin-1 receptor (Homo sapiens, UniProt Q02763). The experiment is described as follows: Inhibition of TIE2 by microplate scintillation counting.
Angiopoietin-1 receptor, sequence (Q02763 whole entry): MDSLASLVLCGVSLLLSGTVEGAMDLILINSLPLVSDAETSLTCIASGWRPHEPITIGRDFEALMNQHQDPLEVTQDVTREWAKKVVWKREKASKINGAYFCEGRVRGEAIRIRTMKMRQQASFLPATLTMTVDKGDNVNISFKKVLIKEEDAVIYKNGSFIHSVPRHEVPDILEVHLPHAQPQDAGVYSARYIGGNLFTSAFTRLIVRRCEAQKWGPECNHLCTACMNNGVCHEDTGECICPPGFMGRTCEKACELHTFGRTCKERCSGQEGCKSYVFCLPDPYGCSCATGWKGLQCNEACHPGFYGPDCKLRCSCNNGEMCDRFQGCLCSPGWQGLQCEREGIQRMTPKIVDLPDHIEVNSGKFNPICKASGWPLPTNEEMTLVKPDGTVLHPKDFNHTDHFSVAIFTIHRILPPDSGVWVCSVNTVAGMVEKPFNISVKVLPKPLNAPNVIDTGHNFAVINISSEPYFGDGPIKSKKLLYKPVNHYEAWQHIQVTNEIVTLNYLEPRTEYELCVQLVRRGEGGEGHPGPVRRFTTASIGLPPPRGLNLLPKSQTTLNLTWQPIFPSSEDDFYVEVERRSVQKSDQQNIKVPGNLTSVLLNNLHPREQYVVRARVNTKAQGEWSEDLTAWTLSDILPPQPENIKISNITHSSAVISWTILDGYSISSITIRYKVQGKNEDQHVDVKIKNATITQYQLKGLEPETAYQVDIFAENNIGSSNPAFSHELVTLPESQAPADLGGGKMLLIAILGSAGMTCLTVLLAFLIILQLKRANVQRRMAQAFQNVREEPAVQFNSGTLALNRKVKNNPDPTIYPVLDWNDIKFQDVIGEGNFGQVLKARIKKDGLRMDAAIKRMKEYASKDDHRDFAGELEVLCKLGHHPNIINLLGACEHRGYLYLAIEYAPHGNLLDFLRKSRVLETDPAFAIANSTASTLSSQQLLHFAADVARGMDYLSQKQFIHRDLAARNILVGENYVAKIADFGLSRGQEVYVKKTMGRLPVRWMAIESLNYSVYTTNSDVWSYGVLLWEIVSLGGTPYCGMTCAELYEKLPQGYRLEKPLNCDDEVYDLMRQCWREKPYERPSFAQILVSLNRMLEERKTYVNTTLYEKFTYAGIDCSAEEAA
For experiment [14], the target named is Mast/stem cell growth factor receptor Kit (Homo sapiens) (UniProt P10721). In words: Residual activity of wild type KIT at 10 uM by microplate scintillation counting.

CDK1/Cyclin E (Homo sapiens), sequence (P06493 whole entry, looked up): as the sequence (P06493 whole entry, looked up) above
CDK1/Cyclin E (Homo sapiens), sequence (P24864 whole entry, looked up): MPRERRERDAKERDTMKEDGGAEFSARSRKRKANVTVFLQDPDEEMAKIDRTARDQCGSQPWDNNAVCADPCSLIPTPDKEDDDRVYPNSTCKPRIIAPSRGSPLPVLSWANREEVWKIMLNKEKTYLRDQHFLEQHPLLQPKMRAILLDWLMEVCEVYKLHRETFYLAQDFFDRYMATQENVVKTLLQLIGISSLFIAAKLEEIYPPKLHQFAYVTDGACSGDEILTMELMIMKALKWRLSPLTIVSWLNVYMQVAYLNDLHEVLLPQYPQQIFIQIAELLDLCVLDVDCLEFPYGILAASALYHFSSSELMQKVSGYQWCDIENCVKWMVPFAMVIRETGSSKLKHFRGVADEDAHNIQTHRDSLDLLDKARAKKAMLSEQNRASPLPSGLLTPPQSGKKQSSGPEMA

Consider `COc1cc2c(Oc3ccc(-c4nc5ccccc5s4)cc3)ncnc2cc1OCCCN1CCCC1`, for which the residual activity worked out at 82% in [1]; 103% in experiment [2]; 97% in experiment [3]; 0% in experiment [4]; 76% in experiment [5]; 78% in experiment [6]. Moreover, the residual activity in experiment [7] is 70%; in [8], 85%; in experiment [9] it was 97%; in experiment [10], 82%; in experiment [11], 95%; in experiment [12], 84%. For the same molecule, the figures for the residual activity in [13] and in experiment [14] were 169% and 31%, respectively. For the same molecule, inhibition at Angiopoietin-1 receptor was half-maximal at 0.072 µM (IC50).

On to `COc1cc2c(Oc3ccc(-c4nc5ccccc5s4)cc3F)ncnc2cc1OCCCN1CCN(C)CC1`, for which the residual activity in [1] came out at 95%; in [2], 94%; in experiment [3], 115%; in [4] it was 0%; in experiment [5], 69%; in [6], 89%. Further, the residual activity in experiment [7] was 10%; in [8], 88%; in [9] it was 98%; in experiment [10] it was 102%; in experiment [11], 97%; in experiment [12], 87%. The residual activity in experiment [13] worked out at 178%; in experiment [14], 32%. Besides, the IC50 (as a rule, the point on the concentration scale where inhibition reaches its midpoint) against Angiopoietin-1 receptor came to 0.088 µM.

`COc1cc2c(Oc3ccc(-c4nc5ccccc5s4)cc3)ncnc2cc1OCCCN1CCN(C)CC1`: the residual activity in [1] is 70%; in [2] it was 95%; in experiment [3] it was 96%; in experiment [4] it was 1%; in experiment [5], 64%; in experiment [6], 85%. Moreover, the residual activity in experiment [7] amounted to 56%; in experiment [8] it was 88%; in experiment [9], 99%; in [10] it was 110%; in [11] it was 83%; in [12] it was 90%. Besides, the residual activity turned out to be 171% in experiment [13] and 30% in experiment [14]. For the same molecule, on Angiopoietin-1 receptor, the IC50 came to 0.044 µM.

Source of the values: ChEMBL document CHEMBL1152560, “Substituted 2-arylbenzothiazoles as kinase inhibitors: hit-to-lead optimization” (Bioorg Med Chem, 2009).
